In patent US20170114021A1, “HALOGEN-SUBSTITUTED COMPOUNDS” (priority 2014, published 2017):

Columns and labels:
Ctenocephalides felis = Ctenocephalides felis oral test (CTECFE); type: in vivo; details: application rate 20 ppm in citrated cattle blood; after 2 days
Procedure: Ctenocephalides felis—Oral Test (CTECFE) Solvent: dimethyl sulphoxide
To produce a suitable preparation of active compound, 10 mg of active compound are mixed with 0.5 ml of dimethyl sulphoxide. Dilution with citrated cattle blood gives the desired concentration.
About 20 unfed adult cat fleas (Ctenocephalides felis) are placed into a chamber which is closed at the top and bottom with gauze. A metal cylinder whose bottom end is closed with parafilm is placed onto the chamber. The cylinder contains the blood/active compound preparation, which can be imbibed by the fleas through the parafilm membrane.
After 2 days, the kill in % is determined. 100% means that all of the fleas have been killed; 0% means that none of the fleas have been killed.

Phaedon cochleariae = Phaedon cochleariae spray test (PHAECO); type: in vivo; details: application rate 100 g/ha; Chinese cabbage leaf discs; after 7 days
Procedure: Phaedon cochleariae—Spray Test (PHAECO) Solvent: 78.0 parts by weight of acetone • • 1.5 parts by weight of dimethylformamide Emulsifier: alkylaryl polyglycol ether
(§1) To produce a suitable preparation of active compound, 1 part by weight of active compound is dissolved using the specified parts by weight of solvent and made up with water containing an emulsifier concentration of 1000 ppm until the desired concentration is attained. To produce further test concentrations, the preparation is diluted with emulsifier-containing water.
After 7 days, efficacy in % is determined. 100% means that all the beetle larvae have been killed; 0% means that no beetle larvae have been killed.

Spodoptera frugiperda = Spodoptera frugiperda spray test (SPODFR); type: in vivo; details: application rate 100 g/ha; maize leaf discs; after 7 days
Procedure: Spodoptera frugiperda—Spray Test (SPODFR)
Solvent: 78.0 parts by weight of acetone • • 1.5 parts by weight of dimethylformamide Emulsifier: alkylaryl polyglycol ether
as §1
Leaf discs of maize (Zea mays) are sprayed with an active compound preparation of the desired concentration and, after drying, populated with caterpillars of the armyworm (Spodoptera frugiperda).
After 7 days, efficacy in % is determined. 100% means that all the caterpillars have been killed; 0% means that no caterpillars have been killed.

[1] = log P by HPLC on reversed-phase column (C18), EEC Directive 79/831 Annex V.A8; type: physicochemical
Procedure: ^a) Unless indicated otherwise, the following method was used to determine the log P values and masses: The determination of the given log P values was carried out in accordance with EEC Directive 79/831 Annex V.A8 by HPLC (High Performance Liquid Chromatography) on a reversed-phase column (C18). Agilent 1100 LC system; 50*4.6 Zorbax Eclipse Plus C18 1.8 micron; mobile phase A: acetonitrile (0.1% formic acid); mobile phase B: water (0.09% formic acid); linear gradient from 10% acetonitrile to 95% acetonitrile in 4.25 min, then 95% acetonitrile for a further 1.25 min; oven temperature 55° C.; flow rate: 2.0 ml/min. Mass detection is effected by means of an Agilend MSD system.

Substance: N-{2-fluoro-5-[2′-methyl-5′-(pentafluoroethyl)-4′-(trifluoromethyl)-2′H-1,3′-bipyrazol-4-yl]benzyl}propanamide [Ic-1]
- efficacy (kill) (Ctenocephalides felis): 100%
- efficacy (Phaedon cochleariae): 100%
- efficacy (Spodoptera frugiperda): 100%
- log P [1]: 3.83
